In the supplement of paper PMC10883282:

Columns and labels:
Experiment in all cases: relative viability vs DMSO control (72 h) (fraction); higher = more viable cells
G401 = system: G401
Outline: (§1)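 Relative viability is percent growth read by ATPLite and averaged over up to triplicate wells. Sarcoma cells were seeded in 384-well plates to reach 80–90% confluence and given 2.5 µl of serially diluted compound after 24 h, from source plates of 10 mM to 0.0002 mM. Incubation lasted 72 h at 37 °C, 5% CO2, with 0.1% DMSO vehicle and a 5 µM positive control, and the data were rescaled so 1 equals full and 0 equals none.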

HT1080 = system: HT1080
Outline: as §1

KHOS-240S = system: KHOS-240S
Outline: as §1

MES-SA = system: MES-SA
Outline: as §1

RD-ES = system: RD-ES
Outline: as §1

RD = system: RD
Outline: as §1

SK-ES-1 = system: SK-ES-1
Outline: as §1

SK-LMS-1 = system: SK-LMS-1
Outline: as §1

SW1353 = system: SW1353
Outline: as §1

SW982 = system: SW982
Outline: as §1

SYO-1 = system: SYO-1
Outline: as §1

VA-ES-BJ = system: VA-ES-BJ
Outline: as §1

CCN1CCN(c2ccc(Nc3cc(N(C)C(=O)Nc4c(Cl)c(OC)cc(OC)c4Cl)ncn3)cc2)CC1 [Infigratinib]
Conditions	relative viability
G401, 85 pM	1.048
G401, 0.000254 µM	1.039
G401, 0.00076 µM	1.02
G401, 0.00229 µM	0.9703
G401, 0.00686 µM	0.952
G401, 0.02058 µM	0.8266
G401, 0.0617 µM	0.749
G401, 0.1852 µM	0.649
G401, 0.5556 µM	0.59
G401, 1.6667 µM	0.515
G401, 5 µM	0.33
HT1080, 85 pM	1.03
HT1080, 0.000254 µM	1.07
HT1080, 0.00076 µM	1.072
HT1080, 0.00229 µM	1.04
HT1080, 0.00686 µM	1.053
HT1080, 0.02058 µM	1.067
HT1080, 0.0617 µM	1.04
HT1080, 0.1852 µM	1.06
HT1080, 0.5556 µM	1.087
HT1080, 1.6667 µM	1.11
HT1080, 5 µM	1.01
KHOS-240S, 85 pM	1.058
KHOS-240S, 0.000254 µM	1.11
KHOS-240S, 0.00076 µM	1.08
KHOS-240S, 0.00229 µM	1.06
KHOS-240S, 0.00686 µM	1.06
KHOS-240S, 0.02058 µM	0.986
KHOS-240S, 0.0617 µM	0.926
KHOS-240S, 0.1852 µM	0.932
KHOS-240S, 0.5556 µM	0.907
KHOS-240S, 1.6667 µM	0.874
KHOS-240S, 5 µM	0.835
MES-SA, 85 pM	0.933
MES-SA, 0.000254 µM	0.94
MES-SA, 0.00076 µM	0.927
MES-SA, 0.00229 µM	0.928
MES-SA, 0.00686 µM	0.929
MES-SA, 0.02058 µM	0.869
MES-SA, 0.0617 µM	0.846
MES-SA, 0.1852 µM	0.733
MES-SA, 0.5556 µM	0.696
MES-SA, 1.6667 µM	0.556
MES-SA, 5 µM	0.412
RD, 85 pM	1.07
RD, 0.000254 µM	1.06
RD, 0.00076 µM	1.11
RD, 0.00229 µM	1.13
RD, 0.00686 µM	1.14
RD, 0.02058 µM	1.12
RD, 0.0617 µM	1.12
RD, 0.1852 µM	1.14
RD, 0.5556 µM	1.12
RD, 1.6667 µM	1.13
RD, 5 µM	1.11
RD-ES, 85 pM	0.972
RD-ES, 0.000254 µM	0.95
RD-ES, 0.00076 µM	0.965
RD-ES, 0.00229 µM	0.998
RD-ES, 0.00686 µM	0.981
RD-ES, 0.02058 µM	0.959
RD-ES, 0.0617 µM	0.957
RD-ES, 0.1852 µM	0.959
RD-ES, 0.5556 µM	0.928
RD-ES, 1.6667 µM	0.802
RD-ES, 5 µM	0.783
SK-ES-1, 85 pM	1.03
SK-ES-1, 0.000254 µM	1.07
SK-ES-1, 0.00076 µM	1
SK-ES-1, 0.00229 µM	1.06
SK-ES-1, 0.00686 µM	1.03
SK-ES-1, 0.02058 µM	1.01
SK-ES-1, 0.0617 µM	0.971
SK-ES-1, 0.1852 µM	0.929
SK-ES-1, 0.5556 µM	0.797
SK-ES-1, 1.6667 µM	0.559
SK-ES-1, 5 µM	0.373
SK-LMS-1, 85 pM	1.12
SK-LMS-1, 0.000254 µM	1.11
SK-LMS-1, 0.00076 µM	1.08
SK-LMS-1, 0.00229 µM	1.13
SK-LMS-1, 0.00686 µM	1.1
SK-LMS-1, 0.02058 µM	1.06
SK-LMS-1, 0.0617 µM	1.08
SK-LMS-1, 0.1852 µM	1.11
SK-LMS-1, 0.5556 µM	1.08
SK-LMS-1, 1.6667 µM	1.04
SK-LMS-1, 5 µM	0.952
SW982, 85 pM	1.01
SW982, 0.000254 µM	1.07
SW982, 0.00076 µM	1.02
SW982, 0.00229 µM	1.05
SW982, 0.00686 µM	1.05
SW982, 0.02058 µM	1.05
SW982, 0.0617 µM	1.07
SW982, 0.1852 µM	1.061
SW982, 0.5556 µM	0.98
SW982, 1.6667 µM	0.78
SW982, 5 µM	0.732
SW1353, 85 pM	1.06
SW1353, 0.000254 µM	1.069
SW1353, 0.00076 µM	1.04
SW1353, 0.00229 µM	1.01
SW1353, 0.00686 µM	0.98
SW1353, 0.02058 µM	0.914
SW1353, 0.0617 µM	0.861
SW1353, 0.1852 µM	0.861
SW1353, 0.5556 µM	0.861
SW1353, 1.6667 µM	0.8437
SW1353, 5 µM	0.741
SYO-1, 85 pM	1.02
SYO-1, 0.000254 µM	0.973
SYO-1, 0.00076 µM	0.975
SYO-1, 0.00229 µM	0.901
SYO-1, 0.00686 µM	0.827
SYO-1, 0.02058 µM	0.655
SYO-1, 0.0617 µM	0.626
SYO-1, 0.1852 µM	0.63
SYO-1, 0.5556 µM	0.596
SYO-1, 1.6667 µM	0.623
SYO-1, 5 µM	0.606
VA-ES-BJ, 85 pM	1.03
VA-ES-BJ, 0.000254 µM	1.048
VA-ES-BJ, 0.00076 µM	1.03
VA-ES-BJ, 0.00229 µM	1.04
VA-ES-BJ, 0.00686 µM	1.04
VA-ES-BJ, 0.02058 µM	0.977
VA-ES-BJ, 0.0617 µM	1.01
VA-ES-BJ, 0.1852 µM	0.982
VA-ES-BJ, 0.5556 µM	0.949
VA-ES-BJ, 1.6667 µM	0.8949
VA-ES-BJ, 5 µM	0.871
